Source: US6861395B2, “Method and compositions for inhibiting the growth of microorganisms in metal working fluids” (Arch UK Biocides Limited, priority 2000, dated 2005)

Assays:
[1] = tested on: Yeast and Fungi (Fusarium solani, Penicillium sp., Acremonium strictum, Geotrichum candidum); experiment: Microbial resistance test based on ASTM E686-91, fungal contamination in semi synthetic metal working fluid; format: cell-based; details: for Fungal Contamination after (days) 10: 10 days; for Fungal Contamination after (days) 31: 31 days; for Fungal Contamination after (days) 87: 87 days; for Fungal Contamination after (days) 110: 110 days; as to all read-outs here: key: +++ indicates confluent growth; ++ indicates moderate growth; + indicates slight growth; − indicates no growth
Experimental: (§1) The following microbial strains were studied:
(§2) The biocides shown in Tables 4, 5 and 6 were added to the metal working fluid shown in each table and assessed for microbial resistance by a method based on ASTM E686-91: Standard Test Method for Evaluation of Antimicrobial Agents in Aqueous Metal Working Fluids as described below.
(§3) The metal working fluids used in the assessment were the same as those used in Examples 1 to 7.
(§4) Bacteria and fungi were gradually acclimatised to the metal working fluid. The organisms were grown up in biocide free metal working fluid (containing 50% (v/v) minimal broth) with aeration at 25° C. until microbial count reached 10^9 cfu/ml. Every 7 days each micro-organism was subcultured into 90 ml (10 ml inoculum) and re-incubated. Subculturing was done for a minimum of three cycles before use.
(§5) To 1I French square bottles, 900 ml of metal working fluid was added at use concentration (diluted to 5% with water of 125 ppm calcium hardness). 100 ml of inoculum was added and mixed (100 ml of total quantity was removed and discarded). The metal working fluid was allowed to sit undisturbed for 64 hours. The metal working fluid was mixed and sampled for microbiological testing.
(§6) Bacteria and fungi were enumerated by streaking an aliquot onto nutrient or malt agar as appropriate. The mixtures were aerated using capillary tubing to bubble air into the bottom of the bottle (introduced by means of a multi-valve air manifold). Antifoam was also added. After 5 days, the aeration was stopped and volume replaced with sterile distilled water. The mixture was allowed to sit for 64 hours and then mixed. 10 ml of inoculum was used to re-inoculate and all losses were replaced with Biocide containing metal working fluid. The pH of the metal working fluid was measured at start of test and every 7 days. […] Aeration was resumed and the regime repeated for a minimum of 6 weeks or until failure.

[2] = tested on: Fusarium solani (ATCC 58877/IMI 314228); experiment: MIC by doubling dilution in microtitre plate; format: cell-based
Experimental: The fungus Fusarium solani (ATCC 58877/IMI 314228) was grown in malt agar for 7-14 days at 25° C. to give a mycelial mat and the spores harvested from the surface using physiological saline to give a suspension containing about 10^6 fungal spores/ml. This was then diluted with malt broth to give a spore suspension containing 10^4 spores/ml. A 100 μl aliquot of this spore suspension was added to each well of a microtitre plate except for the first well which contained 180 μl.
A 20 μl aliquot of this solution was added to the first well of the microtitre plate and thoroughly mixed. 100 μl was withdrawn from the first well, added to the second well and mixed.

[3] = tested on: Yeast and Fungi (Fusarium solani, Penicillium sp., Acremonium strictum, Geotrichum candidum); experiment: Microbial resistance test based on ASTM E686-91, fungal contamination in synthetic metal working fluid; format: cell-based; details: for Fungal Contamination after (days) 10: 10 days; for Fungal Contamination after (days) 31: 31 days; for Fungal Contamination after (days) 87: 87 days; for Fungal Contamination after (days) 110: 110 days; as to all read-outs here: key: +++ indicates confluent growth; ++ indicates moderate growth; + indicates slight growth; − indicates no growth
Experimental: as §1, §2, §3, §4, §5, §6

[4] = Temperature stability of biocide in soluble oil metal working fluid (storage at 50° C., HPLC)
[5] = Temperature stability of biocide in semi-synthetic metal working fluid (storage at 50° C., HPLC); details: Semi-synthetic metal working fluid Quaker fluid No. 12717
Experimental: The biocides shown in Table 1 were added to Trim C111A (ex. Master Chemical Corporation, USA, a synthetic water miscible cutting and grinding fluid used as coolant and lubricant in metal removal processes). The initial concentration of the biocide in the metal working fluid is shown in the third column of Table 1. The metal working fluid was then stored at 50° C. for 45 days.
The concentration of biocide remaining after storage was measured using reverse phase high performance liquid chromatography (HPLC) after initial sample preparation. In the case of 2-n-butyl-benzisothiazolin-3-one, 2-n-octyl-isothiazolin-3-one and 3-iodo-2-propynyl-N-butylcarbamate sample preparation involved solvent extraction of the active from the metal working fluid. For sodium pyrithione, initial sample preparation was derivatisation to produce a compound readily detectable by HPLC.
The stability of the biocides shown in Tables 2 and 3 in semi-synthetic and soluble oil metal working fluids was assessed using the same method described above in Example 1.

[6] = Temperature stability of biocide in synthetic metal working fluid (storage at 50° C., HPLC); format: physicochemical; details: Synthetic metal working fluid Trim C111A
Experimental: The biocides shown in Table 1 were added to Trim C111A (ex. Master Chemical Corporation, USA, a synthetic water miscible cutting and grinding fluid used as coolant and lubricant in metal removal processes). […] The metal working fluid was then stored at 50° C. for 45 days.

CCCCn1sc2ccccc2c1=O [BBIT, 2-n-butyl-1,2-benzisothiazolin-3-one]
−: Fungal Contamination after (days) 10 ([1]; 75 ppm) | Fungal Contamination after (days) 31 ([1]; 75 ppm) | Fungal Contamination after (days) 10 ([1]; 100 ppm) | Fungal Contamination after (days) 31 ([1]; 100 ppm) | Fungal Contamination after (days) 87 ([1]; 100 ppm) | Fungal Contamination after (days) 110 ([1]; 100 ppm) | Fungal Contamination after (days) 10 ([1]; 150 ppm) | Fungal Contamination after (days) 31 ([1]; 150 ppm) | Fungal Contamination after (days) 87 ([1]; 150 ppm) | Fungal Contamination after (days) 110 ([1]; 150 ppm) | Fungal Contamination after (days) 10 ([3]; Conc. (a.i.) 75 ppm) | Fungal Contamination after (days) 31 ([3]; Conc. (a.i.) 75 ppm) | Fungal Contamination after (days) 87 ([3]; Conc. (a.i.) 75 ppm) | Fungal Contamination after (days) 110 ([3]; Conc. (a.i.) 75 ppm) | Fungal Contamination after (days) 10 ([3]; Conc. (a.i.) 100 ppm) | Fungal Contamination after (days) 31 ([3]; Conc. (a.i.) 100 ppm) | Fungal Contamination after (days) 87 ([3]; Conc. (a.i.) 100 ppm) | Fungal Contamination after (days) 110 ([3]; Conc. (a.i.) 100 ppm) | Fungal Contamination after (days) 10 ([3]; Conc. (a.i.) 150 ppm) | Fungal Contamination after (days) 31 ([3]; Conc. (a.i.) 150 ppm) | Fungal Contamination after (days) 87 ([3]; Conc. (a.i.) 150 ppm) | Fungal Contamination after (days) 110 ([3]; Conc. (a.i.) 150 ppm)
6.4 ppm: MIC values ([2]; malt broth, visual inspection after 5 days at 25° C.)
+: Fungal Contamination after (days) 87 ([1]; 75 ppm) | Fungal Contamination after (days) 110 ([1]; 75 ppm)

CCCCNC(=O)OCC#CI [IPBC, 3-iodo-2-propynyl-N-n-butyl carbamate, reference compound]
0%: % Remaining after storage at 50° C. for 45 days ([5]; initial concentration 5000 ppm)
−: Fungal Contamination after (days) 10 ([1]; 75 ppm) | Fungal Contamination after (days) 31 ([1]; 75 ppm) | Fungal Contamination after (days) 87 ([1]; 75 ppm) | Fungal Contamination after (days) 110 ([1]; 75 ppm) | Fungal Contamination after (days) 10 ([3]; Conc. (a.i.) 75 ppm) | Fungal Contamination after (days) 31 ([3]; Conc. (a.i.) 75 ppm) | Fungal Contamination after (days) 87 ([3]; Conc. (a.i.) 75 ppm) | Fungal Contamination after (days) 110 ([3]; Conc. (a.i.) 75 ppm)
13%: % Remaining after storage at 50° C. for 45 days ([4]; initial concentration 5000 ppm)

CCCCCCCCn1sccc1=O [OIT, 2-n-octyl-isothiazolin-3-one]
0%: % Remaining after storage at 50° C. for 45 days ([6]; initial concentration 2000 ppm) | % Remaining after storage at 50° C. for 45 days ([5]; initial concentration 2000 ppm)

[Na].[O-][n+]1ccccc1S [Sodium Omadine, sodium pyridine-2-thiol-1-oxide, reference compound]
−: Fungal Contamination after (days) 10 ([1]; 150 ppm) | Fungal Contamination after (days) 31 ([1]; 150 ppm)
+: Fungal Contamination after (days) 87 ([1]; 150 ppm) | Fungal Contamination after (days) 110 ([1]; 150 ppm)
0%: % Remaining after storage at 50° C. for 45 days ([4]; initial concentration 2500 ppm) | % Remaining after storage at 50° C. for 45 days ([6]; initial concentration 2500 ppm) | % Remaining after storage at 50° C. for 45 days ([5]; initial concentration 2500 ppm)
18.5 µg/mL: MIC ([2]; ATCC58877, 120 h, read-out: MIC values)
++: Fungal Contamination after (days) 10 ([3]; Conc. (a.i.) 150 ppm)
+++: Fungal Contamination after (days) 31 ([3]; Conc. (a.i.) 150 ppm) | Fungal Contamination after (days) 87 ([3]; Conc. (a.i.) 150 ppm) | Fungal Contamination after (days) 110 ([3]; Conc. (a.i.) 150 ppm)
